Measurements reported in patent publication US6572788B2, “Amine oxide wood preservatives” (Lonza, Inc., priority 2000, dated 2003).
Values after ≈ are worked out from the molar mass of the structure shown. Values joined by “and” are separate entries in the source; they are usually repeats but may differ in a detail not shown here. Equal entries are not always repeated. Where two headings read alike, the source gives them in different places.

Assays:
[1] = test system: G. trabeum (brown rot fungi); assay: Agar dilution plate method, wood rot fungi; type: cell-based; settings: for MIC: Gloeophyllum trabeum, read-out: MIC (ppm of amine oxides)
Protocol: (§1) The efficacy of the aqueous amine oxide solutions in Table 14 at various concentrations against the wood rot fungi T. versicolor (white rot fungi), G. trabeum (brown rot fungi), P. placenta (brown rot fungi), and C. globosum (soft rot decay fungi) were determined using the agar dilution plate method well known in the art. […] The percent retardation of the fungi was determined by the percentage change in the diameter of the fungi on the agar plate (i.e. Percent Retardation=((Diameter of Control)−(Diameter of Treated Fungi))/(Diameter of Control)*100%).

[2] = test system: C. globosum (soft rot decay fungi); assay: Agar dilution plate method, wood rot fungi; type: cell-based; settings: for MIC: Chaetomium globosum, read-out: MIC (ppm of amine oxides)
Protocol: as §1

[3] = test system: P. placenta (brown rot fungi); assay: Agar dilution plate method, wood rot fungi; type: cell-based; settings: for MIC: read-out: MIC (ppm of amine oxides)
Protocol: as §1

[4] = test system: T. versicolor (white rot fungi); assay: Agar dilution plate method, wood rot fungi; type: cell-based; settings: for MIC: Trametes versicolor, read-out: MIC (ppm of amine oxides)
Protocol: as §1

stains, molds, and fungi [5] = assay: Wood preserving efficacy on freshly cut green chestnut oak (dip treatment); design: scale not given here
stains, molds, and fungi [6] = assay: Wood preserving efficacy on freshly cut white birch wood (dip treatment, sealed bag); design: key: 4 - Clean with no visible stain or mold; 3 - Trace amount of white/black fungal growth; 2 - Black and/or white fungal growth visible on all faces and ends; 1 - Heavy fungal growth
Protocol: The wood preserving efficacy of each aqueous test solution in Table 1 below was tested on freshly cut white birch wood as follows. All percentages in Table 1 are by weight. A branch of white birch tree measuring about 3 inches in diameter was cut into pieces about 6 inch in length. Each piece was then split into 4 sections. Each section was dipped into the test solution for about 1 minute and blotted with a paper towel to remove excess liquid. The sections were sealed in a clear plastic bag and stored at ambient conditions. The sections were observed after 1, 3, 7, and 12 weeks for the growth of stains, molds, and fungi. The aqueous test solutions were prepared by mixing the active ingredient with water.

[7] = test system: Poria placenta (P. placenta), a brown rot fungus; assay: Agar plate method, fungus growth inhibition; type: cell-based
Protocol: (§2) The efficacy of aqueous solutions of amine oxides and didecyldimethyl ammonium chloride to inhibit fungus growth was evaluated by the agar plate method known in the art. […] The fungi tested were Trametes versicolor (T. versicolor), a white rot fungus; Gloeophyllum trabeum (G. trabeum), a brown rot fungus which is tolerant of arsenic and phenolic type wood preservatives; Poria placenta (P. placenta), a brown rot fungus which is tolerant to copper in wood preservatives; Lentinus lepideus (L. lepideus), a brown rot fungus which is tolerant to creosote; Coniophora puteana (C. puteana), a brown rot fungus; and Chaetomium globsum (C. globsum), a soft rot fungus.

[8] = test system: Chaetomium globsum (C. globsum), a soft rot fungus; assay: Agar plate method, fungus growth inhibition; type: cell-based
Protocol: as §2

[9] = test system: Gloeophyllum trabeum (G. trabeum), a brown rot fungus; assay: Agar plate method, fungus growth inhibition; type: cell-based
Protocol: as §2

[10] = test system: Trametes versicolor (T. versicolor), a white rot fungus; assay: Agar plate method, fungus growth inhibition; type: cell-based; settings: 50% retardation of growth
Protocol: as §2

stains, molds, and fungi [11] = assay: Wood preserving efficacy on freshly cut beech wood (dip treatment); settings: beech wood pieces (Example 15); also: key: 4 - Clean with no visible stain or mold; 3 - Trace amount of white/black fungal growth; 2 - Black and/or white fungal growth visible on all faces and ends; 1 - Heavy fungal growth
Protocol: The wood preserving efficacy of each aqueous test solution in Table 18 below was tested on freshly cut beech wood (Fagus grandifolia Ehrh.) as follows. All percentages in Table 18 are by weight. A 1″ branch of a beech tree was split into two pieces. The bark was left on the pieces. Each piece was dipped into the test solution for about 1 minute and blotted with a paper towel to remove excess liquid. […] The aqueous test solutions were prepared by mixing the active ingredient with water.

stains, molds, and fungi [12] = assay: Wood preserving efficacy on freshly cut tulip wood (dip treatment); also: key: 4 - Clean with no visible stain or mold; 3 - Trace amount of white/black fungal growth; 2 - Black and/or white fungal growth visible on all faces and ends; 1 - Heavy fungal growth
Protocol: The wood preserving efficacy of each aqueous test solution in Table 17 below was tested on freshly cut tulip wood (also known as Tulip-Popular, Yellow Popular, and Liriodendron tulipfera L.) as follows. All percentages in Table 17 are by weight. Pieces of tulip wood cut from a 4″ debarked branch were cut into pieces. Each piece was then split into 4 sections. Each section was dipped into the test solution for about 1 minute and blotted with a paper towel to remove excess liquid. The sections were sealed in a clear plastic bag and stored at ambient conditions. The sections were observed after 1, 3, 7, and 11 weeks for the growth of stains, molds, and fungi. The aqueous test solutions were prepared by mixing the active ingredient with water.

[13] = G. trabeum, 100% growth retardation, Table 14
[14] = C. globosum, 100% growth retardation, Table 14
[15] = P. placenta, 100% growth retardation, Table 14
[16] = T. versicolor, 100% growth retardation, Table 14
[17] = 3 weeks, listed as 0.5% Dodecyl DMAO
[18] = 3 weeks, listed as 1.0% Dodecyl DMAO
[19] = 7 weeks, listed as 0.5% Dodecyl DMAO
[20] = 7 weeks, listed as 1.0% Dodecyl DMAO
[21] = 11 weeks, listed as 0.5% Dodecyl DMAO
[22] = 11 weeks, listed as 1.0% Dodecyl DMAO

What does the source list for Coco-di(hydroxyethyl)amine oxide?
MIC (ppm of amine oxides) [1, 13]: 500 ppm; MIC (ppm of amine oxides) [2, 14]: >1000 ppm; MIC (ppm of amine oxides) [3, 15]: 500 ppm; MIC (ppm of amine oxides) [4, 16]: 500 ppm

Which results are given for `CC(O)(P(=O)(O)O)P(=O)(O)O` [1-Hydroxyethylidene-1,1-diphosphonic acid]?
Rating of treated green chestnut oak sections vs. Time (stains, molds, and fungi [5]; 2 weeks): 2; Rating of treated green chestnut oak sections vs. Time (stains, molds, and fungi [5]; 4 weeks): 2; Rating of treated green chestnut oak sections vs. Time (stains, molds, and fungi [5]; 5 weeks): 1; Rating of treated green chestnut oak sections vs. Time (stains, molds, and fungi [5]; 9 weeks): 1

`CCCCCCCCCCCCCC[N+](C)(C)[O-]` [Tetradecyl dimethylamine oxide] was tested. Which “Rating of treated white birch sections vs. Time” value (stains, molds, and fungi [6]; 1 week) did it give?
The value was 4.

What about the “Rating of treated white birch sections vs. Time” value (stains, molds, and fungi [6]; 3 weeks) of the same compound?
The value was 3.

What about the “Rating of treated white birch sections vs. Time” value (stains, molds, and fungi [6]; 7 weeks) of the same compound?
The value was 2.

And the “Rating of treated white birch sections vs. Time” value (stains, molds, and fungi [6]; 12 weeks)?
The value was 2.

What about the MIC [1, 13] of the same compound?
Its MIC is greater than 1000 mg/L.

And the MIC [2, 14]?
Its MIC is greater than 1000 mg/L.

And the MIC [3, 15]?
Its MIC is greater than 1000 mg/L.

What about the MIC [4, 16] of the same compound?
The MIC was greater than 1000 mg/L.

And the IC50 [7]?
Its IC50 is 2-5 ppm.

What about the IC50 [8] of the same compound?
The IC50 was 80-100 ppm.

What about the IC50 [9] of the same compound?
Its IC50 is 15-25 ppm.

What about the IC50 [10] of the same compound?
The IC50 was 70 ppm.

For `CCCCCCCCCCCC[N+]1([O-])CCOCC1` [Lauryl morpholine N-oxide, lauryl morpholine N-oxide], which “MIC (ppm of amine oxides)” value [1, 13] is on record?
The value was 1000 ppm.

What about the “MIC (ppm of amine oxides)” value [2, 14] of the same compound?
Its value is greater than 1000 ppm.

And the “MIC (ppm of amine oxides)” value [3, 15]?
Its value is 500 ppm.

What about the “MIC (ppm of amine oxides)” value [4, 16] of the same compound?
Its value is 750 ppm.

How did the MIC [1, 13] turn out when `CCCCCCCC[N+](C)(C)[O-]` [Octyldimethylamine oxide] was run?
Its MIC is 1000 mg/L (≈ 5.77 mM).

What about the MIC [2, 14] of the same compound?
The MIC was greater than 1000 mg/L.

And the MIC [3, 15]?
Its MIC is 1000 mg/L (≈ 5.77 mM).

What about the MIC [4, 16] of the same compound?
The MIC was 750 mg/L (≈ 4.33 mM).

And the IC50 [7]?
Its IC50 is 300 ppm.

And the IC50 [8]?
Its IC50 is 400 ppm.

What about the IC50 [9] of the same compound?
Its IC50 is 250-400 ppm.

What about the IC50 [10] of the same compound?
Its IC50 is 800 ppm.

Which “MIC (ppm of amine oxides)” value [1, 13] does the source give for `CCCCCCCCCCCC[N+](C)([O-])Cc1ccccc1` (centres unmarked) [Dodecyl-BMAO] here?
Its value is 1000 ppm.

And the “MIC (ppm of amine oxides)” value [2, 14]?
The value was greater than 1000 ppm.

And the “MIC (ppm of amine oxides)” value [3, 15]?
Its value is greater than 1000 ppm.

And the “MIC (ppm of amine oxides)” value [4, 16]?
The value was greater than 1000 ppm.

Which results are given for `CCCCCCCCCCCCCCCCCC[N+](C)(C)[O-]` [Octadecyl dimethylamine oxide]?
MIC [1, 13]: > 1000 mg/L; MIC [2, 14]: > 1000 mg/L; MIC [3, 15]: > 1000 mg/L; MIC [4, 16]: > 1000 mg/L; IC50 [7]: 20-50 ppm; IC50 [8]: 600 ppm; IC50 [9]: 250 ppm; IC50 [10]: 800 ppm

What does the source list for `CCCCCCCCCC[N+](C)(C)[O-]` [Decyldimethylamine oxide]?
Rating of treated white birch sections vs. Time (stains, molds, and fungi [6]; 1 week): 3; Rating of treated white birch sections vs. Time (stains, molds, and fungi [6]; 3 weeks): 2; Rating of treated white birch sections vs. Time (stains, molds, and fungi [6]; 7 weeks): 2; Rating of treated white birch sections vs. Time (stains, molds, and fungi [6]; 12 weeks): 2; MIC [1, 13]: 250 mg/L (≈ 1.24 mM); MIC [2, 14]: > 1000 mg/L; MIC [3, 15]: 500 mg/L (≈ 2.48 mM); MIC [4, 16]: 750 mg/L (≈ 3.72 mM); IC50 [7]: 15-25 ppm; IC50 [8]: 50-100 ppm; IC50 [9]: 20-40 ppm; IC50 [10]: 300-500 ppm

For `CCCCCCCCCCCC[N+](C)(C)[O-]` [Dodecyl dimethylamine oxide, dodecyl dimethylamine oxide], which “Rating of treated tulip sections vs. Time” value (stains, molds, and fungi [11]; 1 week, listed as 0.5% Dodecyl DMAO) is on record?
Its value is 4.

What about the “Rating of treated tulip sections vs. Time” value (stains, molds, and fungi [11]; 1 week, listed as 1.0% Dodecyl DMAO) of the same compound?
The value was 4 and 3.5.

What about the “Rating of treated tulip sections vs. Time” value (stains, molds, and fungi [11]; [17]) of the same compound?
Its value is 4.

And the “Rating of treated tulip sections vs. Time” value (stains, molds, and fungi [11]; [18])?
Its value is 2 and 3.

And the “Rating of treated tulip sections vs. Time” value (stains, molds, and fungi [11]; [19])?
Its value is 2.5.

And the “Rating of treated tulip sections vs. Time” value (stains, molds, and fungi [11]; [20])?
Its value is 2.

What about the “Rating of treated tulip sections vs. Time” value (stains, molds, and fungi [11]; [21]) of the same compound?
The value was 2.5.

And the “Rating of treated tulip sections vs. Time” value (stains, molds, and fungi [11]; [22])?
The value was 2 and 1.

And the “Rating of treated tulip sections vs. Time” value (stains, molds, and fungi [12]; 1 week)?
The value was 4.

And the “Rating of treated tulip sections vs. Time” value (stains, molds, and fungi [12]; [17])?
Its value is 3.

And the “Rating of treated tulip sections vs. Time” value (stains, molds, and fungi [12]; [18])?
Its value is 4.

What about the “Rating of treated tulip sections vs. Time” value (stains, molds, and fungi [12]; [19]) of the same compound?
The value was 2.

What about the “Rating of treated tulip sections vs. Time” value (stains, molds, and fungi [12]; [20]) of the same compound?
Its value is 4 and 3.

What about the “Rating of treated tulip sections vs. Time” value (stains, molds, and fungi [12]; [21]) of the same compound?
The value was 1.

And the “Rating of treated tulip sections vs. Time” value (stains, molds, and fungi [12]; [22])?
Its value is 4.

And the “Rating of treated green chestnut oak sections vs. Time” value (stains, molds, and fungi [5]; 2 weeks)?
The value was 3.

What about the “Rating of treated green chestnut oak sections vs. Time” value (stains, molds, and fungi [5]; 4 weeks) of the same compound?
The value was 2.

And the “Rating of treated green chestnut oak sections vs. Time” value (stains, molds, and fungi [5]; 5 weeks)?
Its value is 2.

And the “Rating of treated green chestnut oak sections vs. Time” value (stains, molds, and fungi [5]; 9 weeks)?
The value was 1.

And the MIC [1]?
Its MIC is 250 mg/L (≈ 1.09 mM).

And the MIC [2]?
Its MIC is greater than 1000 mg/L.

And the MIC [3]?
The MIC was 250 mg/L (≈ 1.09 mM).

And the MIC [4]?
Its MIC is 250 mg/L (≈ 1.09 mM).

What does the source list for Tallow di(hydroxyethyl)amine oxide?
MIC (ppm of amine oxides) [1, 13]: >1000 ppm; MIC (ppm of amine oxides) [2, 14]: >1000 ppm; MIC (ppm of amine oxides) [3, 15]: >1000 ppm; MIC (ppm of amine oxides) [4, 16]: >1000 ppm
